# In patent US20080207738A1, “DRUG COMBINATIONS TO TREAT DRUG RESISTANT TUMORS” (priority 2007, published 2008):
# Like-named read-outs stand apart in the source and are kept apart here.
# Key:
# [1] = test system: L5178/MDR1 mouse T-cell lymphoma cells; assay: cells; conditions: Mus musculus, T-cell, 72 h, read-out: Inhibition (%) of viability
# Source text: (§1) For the determination of relative number of viable cells before and after treatments, in most cases the MTT assay was used. This calorimetric assay is based on the ability of living cells, but not dead cells, to reduce 3-(4, 5-dimethyl thiazol-2-yl)-2, 5-diphenyltetrazolium bromide [Carmichael, J, De Graff, W. G., Gazdar, A. F., Minna, J. D. and Mitchell, J. B. (1987), “Evaluation oftetrazolium-based semiautomated calorimetric assay: Assessment of chemosensitivity testing,” Cancer Res., 47, 936-942]. For this assay, cells were plated in 96-well plates (10,000-30,000 cells in case of cultured cells, 100,000 cells in case of healthy lymphocytes, and 200,000 cells in case of chronic lymphocytic leukemia or non-Hodgkin lymphocytes) in the respective incubation media. After a 24-h resting period, the cells were treated with the test agents and then incubated (in CO2 incubator under humidified atmosphere) for 72 hours (final incubation volume, 150 μl). The MTT assay was performed both with the untreated and treated cell cultures at the conclusion of the incubation. Often, the MTT assay also was performed at the start of treatments to allow assessment of proliferation rates in the control and treated cell cultures. All data presented are the average of 4 incubations (in 4 separate wells) with the same cell population.
# L5178/MDR1 cells were seeded at 10,000 cells per well in 96-well plates and then incubated for 72 hours in the absence or presence of 5 μg/ml of CCcompound104 and various concentrations of CCcompound26 as indicated in Table 6.
# Epirubicin, like doxorubicin and other antracyclins, is an MDR1 substrate. The goal of this experiment was to use epirubicin as a model compound to determine if in L5178/MDR1 cells CCcompound104 also can enhance the effects of MDR1 substrate anti-cancer agents other than CCcompound26 and other thioxanthene or thioxanthone CC compounds. The parent and MDR1 expressing cells were seeded at 30,000 cells per well in 96-well microplates and after a 24-h resting period treated with increasing concentrations of epirubicin n in the absence or presence of 5 μg/ml of CCcompound104 for 72 hours.
# MCF-7/ADR cells = assay: MTT cell viability, MCF-7/ADR cells; assay type: cell-based, human; conditions: 72 h; CCcompound104 5 μg/ml, EA 60 μM, CCcompound26/CCcompound3/CCcompound19 50 μM, alone or combined
# Procedure: MCF/ADR cells were selected by incubating the parent MCF-7 with toxic concentrations (up to 10 μM) of adriamycin (doxorubicin). The selected drug resistant cells express both MDR1 and MRP1 among other molecular alterations as reviewed earlier [Kiss, Z., Tomono, M. and Anderson, W. B. (1994), “Phorbol ester selectively stimulates the phospholipase D-mediated hydrolysis of phosphatidylethanolamine in multidrug-resistant MCF-7 human breast carcinoma cells,” Biochem. J., 302, 649-654]. […] Ethacrynic acid (EA) alone, used at 60 μM concentration, decreased cell viability by about 24%, while CCcompound104 and EA in combination had 70% inhibitory effects (Table 7). In this cell line CCcompound104 and EA decreased cell viability synergistically.
# in vitro = conditions: human, decrease of viability of healthy lymphocytes
# Source text: as §1
# Peripheral lymphocytes are known to be very sensitive to chemotherapy and this sensitivity often limits the dose of chemotherapy that can be employed. In this series of experiments, the combined effects of CCcompound104 alone or in combination with CCcompound26 or CCcompound3 were determined on the viability of peripheral lymphocytes to establish doses that reduce cell viability less than 50%. As in previous experiments, the treatments were performed for 72 hours.
# CLL cells = assay: cells; conditions: Homo sapiens, CLL cell, 72 h, 72 h, CCcompound104 5 μg/ml, CCcompound26 1 μM, alone or combined
# Procedure: Heparinized peripheral-blood samples were obtained from chronic lymphocytic leukemia patients with more than 70% malignant cells after informed consent, in accordance with the Declaration of Helsinki. The blood samples (10-ml) were diluted 1:1 with cold phosphate buffered saline (PBS; 0.135 M NaCl, 2.7 mM KCl, 1.5 mM KH2PO4, 8 mM Na2HPO4 [pH 7.4]) and layered onto Ficoll-Hypaque (8-ml, specific gravity, 1.086; Life Technologies, Grand Island, N.Y.). Then, the blood was centrifuged at 433 g for 20 min, and mononuclear cells were removed from the interphase. Cells were washed twice with cold PBS and after each centrifugation step the pelleted cells were resuspended in 10-ml RPMI 1640 supplemented with 10% fetal bovine serum (inactivated for 30 min at 56° C.). A Coulter channelyzer (Coulter Electronics, Hialeah, Fla.) was used to determine the cell number. Then the number of cells was adjusted to 1×10^7 cells per 1 ml before using them for the experiments.
# as §1
# Solubility in water = assay type: physicochemical
# Source text: In one embodiment, CCcompound104, CCcompound26 and EA may be administered orally. The two CC compounds are water-soluble, while EA is first dissolved in absolute ethanol and diluted in water or a suitable physiologically compatible liquid solvent. In one embodiment of the invention, the CC compounds and EA are in the form of a tablet, gel capsule, a liquid, or the like. In each case, the compounds are mixed with one or more carriers chosen by one having ordinary skill in the art to best suit the goal of treatment. In addition to the active compounds, the tablet or gel may contain any component that is presently used in the pharmaceutical field to ensure firmness, stability, solubility and appropriate taste. Any additional component of the tablet or gel will be chemically inert; i.e., it will not participate in a chemical reaction with the active compounds or the other additives. Each compound may be prepared for oral consumption separately, or the tablet, gel capsule or liquid may contain any of the two components or all three components. Tablets containing 25 mg or 50 mg of EA can be purchased from Merck.
structure (smiles),measurement,setting,value
"C=CC[N+](CC)(CC)CC/C=C1/c2ccccc2Sc2ccc(C)cc21.[Br-] [CCcompound26, N,N-Diethyl-N-allyl-3-(2-methyl-9H-thioxanthen-9-ylidene)-propan-1-aminiumbromide]",cytotoxicity at 1.56 µM,[1],0%
same,cytotoxicity at 3.12 µM,[1],0%
same,cytotoxicity at 6.25 µM,[1],10%
same,cytotoxicity at 12.5 µM,[1],15%
same,cytotoxicity at 25 µM,[1],13%
same,cytotoxicity at 100 µM,[1],56%
same,Inhibition (%) of viability,MCF-7/ADR cells,24.3%
same,"cytotoxicity at 72 h, 50 μM",in vitro,100%
same,"cytotoxicity at 72 h, 1 μM",in vitro; over 4 lymphocyte preparations,3 to 13%
same,cytotoxicity at 1 µM,"CLL cells; read-out: Inhibition (%) of viability, CLL patient 1",3.5%
same,cytotoxicity at 1 µM,"CLL cells; read-out: Inhibition (%) of viability, CLL patient 2",15.8%
same,cytotoxicity at 1 µM,"CLL cells; read-out: Inhibition (%) of viability, CLL patient 3",66.6%
same,cytotoxicity at 1 µM,"CLL cells; read-out: Inhibition (%) of viability, CLL patient 4",46.2%
same,cytotoxicity at 1 µM,"CLL cells; read-out: Inhibition (%) of viability, CLL patient 5",10.8%
same,cytotoxicity at 1 µM,"CLL cells; read-out: Inhibition (%) of viability, CLL patient 6",20.9%
same,cytotoxicity at 1 µM,"CLL cells; read-out: Inhibition (%) of viability, CLL patient 7",1.8%
same,cytotoxicity at 1 µM,"CLL cells; read-out: Inhibition (%) of viability, CLL patient 8",9%
same,cytotoxicity at 1 µM,"CLL cells; read-out: Inhibition (%) of viability, CLL patient 9",9.2%
same,cytotoxicity at 1 µM,"CLL cells; read-out: Inhibition (%) of viability, CLL patient 10",40.7%
same,cytotoxicity at 1 µM,"CLL cells; read-out: Inhibition (%) of viability, CLL patient 11",48.1%
same,cytotoxicity at 1 µM,"CLL cells; read-out: Inhibition (%) of viability, CLL patient 12",30.4%
same,cytotoxicity at 1 µM,"CLL cells; read-out: Inhibition (%) of viability, CLL patient 13",42.8%
same,cytotoxicity at 1 µM,"CLL cells; read-out: Inhibition (%) of viability, CLL patient 14",72.7%
same,cytotoxicity at 1 µM,"CLL cells; read-out: Inhibition (%) of viability, CLL patient 15",1.6%
same,cytotoxicity at 1 µM,"CLL cells; read-out: Inhibition (%) of viability, CLL patient 16",50%
same,cytotoxicity at 1 µM,"CLL cells; read-out: Inhibition (%) of viability, CLL patient 19",22.5%
same,cytotoxicity at 1 µM,"CLL cells; read-out: Inhibition (%) of viability, CLL patient 20",0%
same,solubility in water,Solubility in water,water-soluble
